According to US20020052354A1, “Paramagnetic DOTA derivatives, pharmaceutical agents that contain the latter, process for their production, and their use for MR imaging of necrosis and infarction” (Schering AG, priority 2000, published 2002):

Legend:
[1] = Determination of relaxivity R1 and R2 (Minispec PC 20); assay type: physicochemical; details: bovine plasma; 40° C.; 0.47 tesla; n = 3
Procedure: Determination of Relaxivity R1 [Lmmol^−1 s^−1] and R2 [Lmmol^−1 s^−1]
Measurement at 40° C.; 0.47 tesla
T1-sequence 180°-TI-90°, inversion recovery

[2] = tested on: infarction areas; details: Circulation, Vol. 90, No. 4, 1994; cited from earlier work
[3] = in vivo; cited from earlier work

Relaxivity R1 [1] | Relaxivity R2 [1] | Substance | visualization of infarction areas [2] | deposition in the skin (photosensitization and discoloration) [3]
15.3 ± 0.3 Lmmol^−1 s^−1 | 16.3 ± 0.2 Lmmol^−1 s^−1 | Gd-mesoporphyrin [1c, DE 4232925] | readily visualize infarction areas | tend to be deposited in the skin
– | – | Mn-tetraphenyl-porphyrin [Mn-TTP] | readily visualize infarction areas | –
17.0 ± 0.1 Lmmol^−1 s^−1 | 20.2 ± 0.6 Lmmol^−1 s^−1 | N,N-Bis[1,4,7-tris(carboxylatomethyl)-1,4,7,10-tetraazacyclododecane-Gd-complex-10-(3-aza-4-oxo-hexan-5-ylic)-acid]-4,4′-methylene-N′,N′-bis[(3-methoxy)-2-naphtoic acid]-tetrahydrazide [Example 4] | – | –
22.8 ± 0.8 Lmmol^−1 s^−1 | 29.2 ± 1.1 Lmmol^−1 s^−1 | N-(1,4,7,-Tris(carboxylatomethyl)-1,4,7,10-tetraazacyclododecane-Gd-complex-10-[1-carboxylate-1-[3-oxapropionic acid)-phenyl]-methyl-N′-[3-(methoxy),2-naphthoic acid]-dihydrazide, sodium salt [Example 11] | – | –
